pEC50, pIC50: −log10 of the molar value. Active and inactive are the calls of the source.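 How the source made its calls: active means compounds giving half or more protection of infected cells from virus-caused growth loss, again on retest; inactive means the rest.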
Tested on: CEM cells HIV-1 protection, formazan growth assay
Test: NCI AIDS Antiviral Assay
Conditions: for pIC50: measured here: growth of uninfected CEM cells
How it was run: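 Protection of CEM cells against HIV-1 was scored from cell growth (soluble formazan) across five concentrations, with parallel uninfected cells. Lack of protection may reflect toxicity.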

Row | SMILES | pEC50 | pIC50 | outcome
1 | O=C(NCCCCCCCCCCCCNC(=O)c1cnc2ccccc2n1)c1cnc2ccccc2n1 | < 5.31 | < 5.31 | 
2 | CCOC(=O)CSc1nnc(C(Sc2nc(-c3ccccc3)c(-c3ccccc3)[nH]2)C(C)C)n1-c1ccccc1 (stereo not given) | < 4.62 | < 4.62 | 
3 | CN1c2ccccc2N(C(=O)c2ccc([N+](=O)[O-])cc2)C(CC(=O)O)c2cccn21 (stereo not given) | < 3.21 | 3.62 | 
4 | Cc1ccc(C(=O)/C=C/c2ccc3c(c2)OCO3)cc1 | < 4.71 | < 4.71 | 
5 | O=C(OCCN1CCCC1)c1cc2ccccc2[nH]1 | < 3.70 | < 4.00 | 
6 | COC(=O)CP(=O)(OC)OCC(F)(F)F (stereo not given) | < 3.00 | 3.08 | 
7 | CC(=O)/C=C/CCC1CCC(=O)C1(C)C(=O)OC(C)(C)C (stereo not given) | < 3.94 | 4.40 | 
8 | Nc1ccc(C(=O)N2CCC[C@H]2CO)c(N)c1 | < 3.70 | < 3.70 | 
9 | CC1CN1SSN1CC1C (stereo not given) | < 3.70 | 3.74 | 
10 | O=C1Sc2cc3c(cc2C(=O)N2CCCC12)OCO3 (stereo not given) | < 3.74 | 3.89 | 
11 | Cc1ccc(C)c(N2C(=O)C(=O)C(c3nc4ccccc4o3)C(=O)C2=O)c1 |  |  | inactive
12 | CN1C(c2ccccc2)=CC(=O)C(O)=C(c2ccccc2)S1(=O)=O | < 3.70 | < 3.70 | 
13 | CCn1c(SCC(=O)NNC(=S)Nc2ccc(Cl)cc2)nc2ccccc2c1=O | < 3.70 | 4.02 | 
14 | S=C1C(=Nc2ccccc2)N(C2CCCCC2)C(=NC2CCCCC2)N1c1ccccc1 | < 3.70 | 3.85 | 
15 | NCCN.O=C([O-])CC(O)C(=O)[O-].[Pt+4] (stereo not given) | < 3.70 | 4.92 | 
16 | O=C1c2ccccc2C(=O)c2c1sc1nc3ccccc3n21 | < 3.70 | 5.05 | 
17 | NCCCCN(CCCN)C(=O)c1ccccc1 |  |  | inactive
18 | COCCN1C2=CCCCC2=Nc2c(N)nc(N)nc21 |  |  | inactive
19 | COc1ccc(N2C(=O)C(=O)C3(CCCCC3)C2=O)c(OC)c1OC | < 3.70 | < 3.70 | 
20 | Cc1ccc(S(=O)(=O)SCc2ccccc2CSS(=O)(=O)c2ccc(C)cc2)cc1 |  |  | inactive
21 | Nc1c(S(=O)(=O)O)cc2cc(S(=O)(=O)O)ccc2c1N=Nc1ccc(CCc2ccc(N=Nc3c(N)c(S(=O)(=O)O)cc4cc(S(=O)(=O)O)ccc34)cc2S(=O)(=O)O)c(S(=O)(=O)O)c1 | 5.12 | 4.22 | 

Row | SMILES | pEC50 | pIC50 | outcome
22 | COC(=O)C(=O)c1cc2ccccc2n1S(=O)(=O)c1ccccc1 | < 3.70 | < 3.70 | 
23 | C=CC(=O)C#Cc1cnc(OC)nc1OC | < 3.70 | 5.96 | 
24 | CSS(=O)(=O)C(c1ccccc1)c1ccccc1 | < 3.95 | 4.31 | 
25 | Cc1nc2c(sc3nc4ccccc4n32)c(=O)[nH]1 | < 4.00 | < 4.00 | 
26 | O=[N+]([O-])c1ccccc1SS(=O)(=O)c1ccc(Cl)cc1 | < 4.10 | 4.35 | 
27 | Cc1ccc(N=Nc2cc(=O)[nH]c(=O)[nH]2)cc1C | < 3.70 | 5.40 | 
28 | C=C1CCC/C(=N/NC(N)=O)C12CC2 | < 3.70 | < 3.70 | 
29 | Cc1ccc2nc3nc(C)c(C)nc3nc2c1 | 5.94 | 4.84 | 
30 | N#CC(NCc1cccc(CNC(C#N)c2ccccc2)c1)c1ccccc1 (stereo not given) | < 3.70 | 4.05 | 
31 | COC(=O)Nc1cn2cc(C(=O)c3cccs3)ccc2n1 | < 5.04 | 7.48 | 
32 | COC(=O)C1=C(C(=O)OC)C2(c3ccccc3)c3ccccc3C(=O)C1N2C1CCCCC1 (stereo not given) | < 3.70 | 4.78 | 
33 | CC(=O)OC1CC[C@@]2(C)C(C1)CC(OC(C)=O)[C@@H]1C2CC(OC(C)=O)[C@]2(C)C(C(C)CC=C(c3ccc(Cl)cc3)c3ccc(Cl)cc3)CCC12 (stereo not given in full) | < 3.70 | 4.24 | 
34 | COc1nc(=O)n(C2CC(N=[N+]=[N-])C(CO)O2)cc1C (stereo not given) | 4.76 | < 3.70 | 
35 | C=C(CN(C)C)c1ccccn1 | < 3.70 | < 3.70 | 
36 | O=C1C2C3CCC(C3)C2C(=O)C2C3CCC(C3)C12 (stereo not given) | < 3.70 | 3.73 | 
37 | Cc1cc(O)c2c(c1)OC1(C)CCC3C(C)(C)CCCC34COC2C14 (stereo not given) | < 4.26 | 5.80 | 
38 | Cc1cc2c(c3oc(=O)cc(C)c13)[C@@H](OC(=O)C13CCC(C)(C(=O)O1)C3(C)C)[C@@H](OC(=O)C13CCC(C)(C(=O)O1)C3(C)C)C(C)(C)O2 (stereo not given in full) | 6.04 | < 3.70 | 
39 | COC1=CC(=O)O/C1=C(\OC)C1OC1c1ccccc1 (stereo not given) | 5.27 | 4.01 | 
40 | O=C1C(S)=[N+](O)c2ccccc2[N+]1=O | < 3.70 | < 3.70 | 
41 | COc1cc(C(=O)C/C(CCCC(=O)Nc2ccccc2[N+](=O)[O-])=N/NC(=O)c2cc3ccccc3cc2O)ccc1O | < 4.49 | 4.56 | 
42 | CC1=C2C(c3ccccc3)(c3ccccc3)C3C=CC2(C=N3)N(C(=O)NC2CCCCC2)C1=O (stereo not given) | < 4.94 | < 4.94 | 

Reference: PubChem BioAssay AID179 (DTP/NCI, 2004)
